Experimental data as given in patent US7407775B2, “Method for identifying Listeria monocytogenes and culture medium” (Biomerieux S.A., priority 2000, dated 2008).

Columns and labels:
Type in all cases: cell-based
[1] = test system: Listeria monocytogenes ATCC 19117; test: Experiment 1: esterase substrates, same chromogenic marker, fatty acids of different chain lengths; design: key to I (intensity of the color): —: the symbol “-” corresponds to the absence of color or intensity; 0 corresponds to no activity; 0.1 corresponds to a trace of color; 0.5 corresponds to very pale coloration; 1 corresponds to clear but low-intensity coloration; 1.5 corresponds to a degree of coloration intermediate between scores 1 and 2; 2 corresponds to clear coloration of moderate intensity; 2.5 corresponds to a degree of coloration intermediate between scores 2 and 3; 3 corresponds to intense coloration; 3.5 corresponds to a degree of coloration intermediate between scores 3 and 4; 4 corresponds to very intense coloration; details: 37° C., substrate 250 mg/l
Procedure: (§1) A stock solution of each substrate at a concentration of 40 g/l was made up in a mixture of 40% Dimethylsulfoxide and 60% Polyoxyethylenesorbitan Monolaurate (Tween 20). An appropriate volume was added to three Columbia-type media while cooling to give a final substrate concentration of 250 mg/l. These dishes were divided into three areas and then each area was inoculated with a suspension (density=0.5 McFarland) of microorganisms taken from either the Applicant's own collection or the ATCC. The dishes were incubated for 48 hours at 37° C. The colonies which grew were examined by eye after 24 and 48 hours of incubation. Both the color and the intensity of the color of the colonies were recorded.
(§2) In Table 1 above, as in the following Tables, C represents the color of the colonies after incubation, I represents the intensity of the color, and the symbol “-” corresponds to the absence of color or intensity; finally, IT defines the incubation time. It should be noted that the intensity of the color is scored on an arbitrary scale but one which is consistent for all the biological specimens and media tested. This scale is valid for this experiment as well as all those that follow. It can be defined in the following way: • 0 corresponds to no activity, • 0.1 corresponds to a trace of color, • 0.5 corresponds to very pale coloration, • 1 corresponds to clear but low-intensity coloration, • 1.5 corresponds to a degree of coloration intermediate between scores 1 and 2, • 2 corresponds to clear coloration of moderate intensity, • 2.5 corresponds to a degree of coloration intermediate between scores 2 and 3, • 3 corresponds to intense coloration, • 3.5 corresponds to a degree of coloration intermediate between scores 3 and 4, • 4 corresponds to very intense coloration.

[2] = test system: Listeria monocytogenes 092; test: as above; design: key to I (intensity of the color): —: the symbol “-” corresponds to the absence of color or intensity; 0 corresponds to no activity; 0.1 corresponds to a trace of color; 0.5 corresponds to very pale coloration; 1 corresponds to clear but low-intensity coloration; 1.5 corresponds to a degree of coloration intermediate between scores 1 and 2; 2 corresponds to clear coloration of moderate intensity; 2.5 corresponds to a degree of coloration intermediate between scores 2 and 3; 3 corresponds to intense coloration; 3.5 corresponds to a degree of coloration intermediate between scores 3 and 4; 4 corresponds to very intense coloration; details: 37° C., substrate 250 mg/l
Procedure: as §1, §2

Listeria species = test: Experiment 3: differentiation of Listeria species in liquid medium
Procedure: as §2
These substrates were lyophilized in the wells of API-type strips (Registered Trademark). Before use, the substrates contained in the wells were resuspended in an agar-free Columbia-type inoculation medium. […]
The intensity of the color of the colonies was recorded.

SMILES	C (color of the colonies) ([1]; IT 24 h)	I (intensity of the color) ([1]; IT 24 h)	C (color of the colonies) ([1]; IT 48 h)	I (intensity of the color) ([1]; IT 48 h)	C (color of the colonies) ([2]; IT 24 h)	I (intensity of the color) ([2]; IT 24 h)	C (color of the colonies) ([2]; IT 48 h)	I (intensity of the color) ([2]; IT 48 h)	differentiation between L. monocytogenes and other species belonging to the same genus (Listeria species)
CCCCCCCC(=O)Oc1c[nH]c2ccc(Br)cc12 [Blue-C8, 5-Bromo-3-indolyl octanoate]	gray	1	gray	2	gray	1.5	gray	2.5	–
CCCCCCCCCC(=O)Oc1c[nH]c2ccc(Br)cc12 [Blue-C10, 5-Bromo-3-indolyl decanoate]	gray	0.5	gray	1	gray	1	gray	2	–
CCCCCCCC(=O)Oc1c[nH]c2ccc(Br)c(Cl)c12 [X-C8, 5-Bromo-4-chloro-3-indolyl octanoate]	–	–	–	–	–	–	–	–	gave a contrast in color
CCCCCCCCC(=O)Oc1c[nH]c2ccc(Br)cc12 [Blue-C9, 5-Bromo-3-indolyl nonanoate]	gray	1	gray	1.5	gray	1	gray	2	–
